Assay results: publication PMC12529880, “Structural mechanisms for cold‐adapted activity of phosphoenolpyruvate carboxykinase” (Protein Science : A Publication of the Protein Society, 2025)

Experiments:
Type in all cases: binding
PnPEPCK [1] = target: T1, PnPEPCK (Polaromonas naphthalenivorans, UniProt A1VIE9); assay: X-ray crystal structure
T1 construct: gene pckG; full length, 622 residues, N-terminal His6-SUMO tag cleaved off with no additional amino acids; codon-optimised gene in pESUMO-Star; E. coli BL21(DE3); EC 4.1.1.32

PnPEPCK [2] = target: T1, PnPEPCK; assay: differential scanning fluorimetry (SYPRO Orange); settings: reference is the Mn-only enzyme, 21.4 μM enzyme, 1 mM MnCl2, 25 mM HEPES pH 7.4
Source text: differential scanning fluorimetry (SYPRO Orange) on PnPEPCK

rcPEPCK = target: T2, rcPEPCK (Rattus norvegicus, UniProt P07379); assay: differential scanning fluorimetry (SYPRO Orange); settings: reference is the Mn-only enzyme, 21.4 μM enzyme, 1 mM MnCl2, 25 mM HEPES pH 7.4
T2 construct: gene Pck1; full length, 622 residues, SUMO tag removed by SUMO protease; E. coli BL21(DE3)
T2 sequence (P07379 1-622): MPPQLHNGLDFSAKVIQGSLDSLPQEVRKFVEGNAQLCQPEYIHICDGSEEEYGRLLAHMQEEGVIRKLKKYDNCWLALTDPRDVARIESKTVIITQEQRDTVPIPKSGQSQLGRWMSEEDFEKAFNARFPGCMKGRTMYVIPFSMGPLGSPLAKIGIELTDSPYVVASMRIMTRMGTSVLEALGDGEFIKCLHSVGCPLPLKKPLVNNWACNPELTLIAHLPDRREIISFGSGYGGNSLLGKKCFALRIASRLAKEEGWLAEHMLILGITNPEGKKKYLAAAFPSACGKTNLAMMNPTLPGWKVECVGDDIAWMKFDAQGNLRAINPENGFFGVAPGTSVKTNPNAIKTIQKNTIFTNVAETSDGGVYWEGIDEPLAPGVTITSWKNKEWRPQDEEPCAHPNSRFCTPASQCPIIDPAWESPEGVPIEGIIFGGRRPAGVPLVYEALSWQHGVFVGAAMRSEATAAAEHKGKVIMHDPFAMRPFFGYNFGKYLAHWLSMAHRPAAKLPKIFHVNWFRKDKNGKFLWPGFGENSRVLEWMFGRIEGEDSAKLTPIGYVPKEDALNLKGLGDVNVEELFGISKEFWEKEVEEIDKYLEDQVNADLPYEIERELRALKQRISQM
Source text: differential scanning fluorimetry (SYPRO Orange) on rcPEPCK

[3] = absolute TM of Mn-GTP complex, 214 μM GTP
[4] = absolute TM of Mn-oxalate complex, 214 μM oxalate

T1 sequence (A1VIE9 entry or part of it): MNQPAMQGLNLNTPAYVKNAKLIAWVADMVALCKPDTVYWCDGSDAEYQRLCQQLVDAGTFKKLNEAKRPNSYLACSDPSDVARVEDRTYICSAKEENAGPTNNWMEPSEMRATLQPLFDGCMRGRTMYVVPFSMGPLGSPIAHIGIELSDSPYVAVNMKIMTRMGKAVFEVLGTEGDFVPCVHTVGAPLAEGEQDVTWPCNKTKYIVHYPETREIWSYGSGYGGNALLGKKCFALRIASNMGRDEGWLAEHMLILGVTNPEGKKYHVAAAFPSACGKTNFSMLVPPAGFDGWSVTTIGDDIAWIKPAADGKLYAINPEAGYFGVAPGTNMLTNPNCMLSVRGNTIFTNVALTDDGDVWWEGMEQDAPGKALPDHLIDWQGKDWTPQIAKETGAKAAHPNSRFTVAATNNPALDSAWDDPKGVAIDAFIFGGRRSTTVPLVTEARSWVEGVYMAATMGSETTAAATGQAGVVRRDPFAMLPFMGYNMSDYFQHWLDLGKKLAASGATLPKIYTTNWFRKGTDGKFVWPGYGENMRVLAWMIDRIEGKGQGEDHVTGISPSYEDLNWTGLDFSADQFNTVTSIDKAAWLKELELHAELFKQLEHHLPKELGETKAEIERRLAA

Nc1nc2c(ncn2[C@@H]2O[C@H](COP(=O)(O)OP(=O)(O)O)[C@@H](O)[C@H]2O)c(=O)[nH]1 [GDP]
X-ray crystal structure (PnPEPCK [1]; ternary complex with PGA, closed): All three ternary complexes (βSP‐GTP, oxalate‐GTP, and PGA‐GDP)

Nc1nc2c(ncn2[C@@H]2O[C@H](COP(=O)(O)OP(=O)(O)OP(=O)(O)O)[C@@H](O)[C@H]2O)c(=O)[nH]1 [GTP]
PnPEPCK / T M (°C) (PnPEPCK [2]; [3]): 59.5 °C | rcPEPCK / T M (°C) (rcPEPCK; [3]): 61.4 °C | X-ray crystal structure (PnPEPCK [1]; ternary complexes with βSP or oxalate, closed): All three ternary complexes (βSP‐GTP, oxalate‐GTP, and PGA‐GDP)

C=C(OP(=O)(O)O)C(=O)O [PEP]
X-ray crystal structure (PnPEPCK [1]; binary Mn2+ complex, open, P2_12_12_1 and C222_1 crystals): both with PEP bound at the active site

O=C(O)COP(=O)(O)O [PGA]
X-ray crystal structure (PnPEPCK [1]; PEP analogue, ternary complex with GDP, closed): All three ternary complexes (βSP‐GTP, oxalate‐GTP, and PGA‐GDP)

O=C(O)C(=O)O [oxalate]
PnPEPCK / T M (°C) (PnPEPCK [2]; [4]): 46.3 °C | rcPEPCK / T M (°C) (rcPEPCK; [4]): 54.4 °C | X-ray crystal structure (PnPEPCK [1]; enol-pyruvate mimic, ternary complex with GTP, closed): All three ternary complexes (βSP‐GTP, oxalate‐GTP, and PGA‐GDP)

O=C(O)C(=O)CS(=O)(=O)O [βSP]
X-ray crystal structure (PnPEPCK [1]; OAA analogue, binary Mn2+ complex and ternary complex with GTP, closed): All three ternary complexes (βSP‐GTP, oxalate‐GTP, and PGA‐GDP) in addition to βSP alone
